Test results from the supplement of paper PMC10307832.

How the values were obtained:
Assay in all cases: relative viability (nuclei count vs DMSO), 5 days (fraction); higher = more cells survive
CAP-232 = compound: C[C@H]([C@@H](C(=O)N)NC(=O)[C@@H]1CSSC[C@@H](C(=O)N[C@H](C(=O)N[C@@H](C(=O)N[C@H](C(=O)N1)CCCCN)CC2=CNC3=CC=CC=C32)CC4=CC=C(C=C4)O)NC(=O)[C@@H](CC5=CC=CC=C5)N)O [CAP-232]
How it was run: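 Nuclei counted with MetaXpress define viability as the ratio of treated to vehicle wells, given as a median across plates. The lung cancer cell lines were in 1536-well plates, pinned with five √10-spaced library-drug doses and imaged at 4× after 5 days and Hoechst staining. Plates passed with control CV below 25% and at least one doubling.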

CAP-232 + Navitoclax = compound: C[C@H]([C@@H](C(=O)N)NC(=O)[C@@H]1CSSC[C@@H](C(=O)N[C@H](C(=O)N[C@@H](C(=O)N[C@H](C(=O)N1)CCCCN)CC2=CNC3=CC=CC=C32)CC4=CC=C(C=C4)O)NC(=O)[C@@H](CC5=CC=CC=C5)N)O [CAP-232] + CC1(C)CCC(c2ccc(Cl)cc2)=C(CN2CCN(c3ccc(C(=O)NS(=O)(=O)c4ccc(N[C@H](CCN5CCOCC5)CSc5ccccc5)c(S(=O)(=O)C(F)(F)F)c4)cc3)CC2)C1 [Navitoclax] (partner 0.5 µM)
How it was run: (§1)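 Lung cancer cell lines, seeded in 1536-well plates, were treated the following day by pin tool with a single drug or with five library-drug doses (not always all listed) in √10 steps on top of a fixed anchor-drug dose. Cells were fixed and nuclei stained in one step after 5 days, and nuclei were counted. Relative viability is the nuclei count for treated wells divided by that for vehicle wells, reported as medians of duplicate plates.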

CAP-232 + Dasatinib = compound: C[C@H]([C@@H](C(=O)N)NC(=O)[C@@H]1CSSC[C@@H](C(=O)N[C@H](C(=O)N[C@@H](C(=O)N[C@H](C(=O)N1)CCCCN)CC2=CNC3=CC=CC=C32)CC4=CC=C(C=C4)O)NC(=O)[C@@H](CC5=CC=CC=C5)N)O [CAP-232] + Cc1nc(Nc2ncc(C(=O)Nc3c(C)cccc3Cl)s2)cc(N2CCN(CCO)CC2)n1 [Dasatinib] (partner 0.075 µM)
How it was run: as §1

CAP-232 + Lapatinib = compound: C[C@H]([C@@H](C(=O)N)NC(=O)[C@@H]1CSSC[C@@H](C(=O)N[C@H](C(=O)N[C@@H](C(=O)N[C@H](C(=O)N1)CCCCN)CC2=CNC3=CC=CC=C32)CC4=CC=C(C=C4)O)NC(=O)[C@@H](CC5=CC=CC=C5)N)O [CAP-232] + CS(=O)(=O)CCNCc1ccc(-c2ccc3ncnc(Nc4ccc(OCc5cccc(F)c5)c(Cl)c4)c3c2)o1 [Lapatinib] (partner 2 µM)
How it was run: as §1

CAP-232 + Vorinostat = compound: C[C@H]([C@@H](C(=O)N)NC(=O)[C@@H]1CSSC[C@@H](C(=O)N[C@H](C(=O)N[C@@H](C(=O)N[C@H](C(=O)N1)CCCCN)CC2=CNC3=CC=CC=C32)CC4=CC=C(C=C4)O)NC(=O)[C@@H](CC5=CC=CC=C5)N)O [CAP-232] + O=C(CCCCCCC(=O)Nc1ccccc1)NO [Vorinostat] (partner 1 µM)
How it was run: as §1

Row | Cell Line | relative viability (CAP-232; 0.4 µM) | relative viability (CAP-232; 1.265 µM) | relative viability (CAP-232; 4 µM) | relative viability (CAP-232; 12.65 µM) | relative viability (CAP-232 + Navitoclax; first compound 0.4 µM) | relative viability (CAP-232 + Navitoclax; first compound 1.265 µM) | relative viability (CAP-232 + Navitoclax; first compound 4 µM) | relative viability (CAP-232 + Navitoclax; first compound 12.65 µM) | relative viability (CAP-232 + Dasatinib; first compound 0.4 µM) | relative viability (CAP-232 + Dasatinib; first compound 1.265 µM) | relative viability (CAP-232 + Dasatinib; first compound 4 µM) | relative viability (CAP-232 + Dasatinib; first compound 12.65 µM) | relative viability (CAP-232 + Lapatinib; first compound 0.4 µM) | relative viability (CAP-232 + Lapatinib; first compound 1.265 µM) | relative viability (CAP-232 + Lapatinib; first compound 4 µM) | relative viability (CAP-232 + Lapatinib; first compound 12.65 µM) | relative viability (CAP-232 + Vorinostat; first compound 0.4 µM) | relative viability (CAP-232 + Vorinostat; first compound 1.265 µM) | relative viability (CAP-232 + Vorinostat; first compound 4 µM) | relative viability (CAP-232 + Vorinostat; first compound 12.65 µM)
1 | NCI-H2009 | 1.06 | 0.998 | 1 | 0.932 | 1.15 | 1.14 | 1.13 | 1.04 | 0.288 | 0.278 | 0.273 | 0.195 | 1.02 | 0.896 | 0.913 | 0.848 | 0.731 | 0.733 | 0.773 | 0.634
2 | NCI-H23 | 1.09 | 0.853 | 0.949 | 0.931 | 0.806 | 0.861 | 0.982 | 0.713 | 0.714 | 0.609 | 0.891 | 0.844 | 0.949 | 1.03 | 1.07 | 0.828 | 0.578 | 0.534 | 0.558 | 0.54
3 | NCI-H838 | 1.03 | 0.943 | 1.05 | 0.757 | 1.21 | 1.19 | 1.28 | 0.556 | 0.364 | 0.249 | 0.403 | 0.25 | 0.976 | 0.974 | 1.14 | 0.499 | 0.727 | 0.756 | 0.754 | 0.736
4 | NCI-H1355 | 1.09 | 0.987 | 1.13 | 0.95 | 0.96 | 0.921 | 1.14 | 0.966 | 0.847 | 0.736 | 0.618 | 0.5 | 1.11 | 1.06 | 1.19 | 1.01 | 0.612 | 0.624 | 0.74 | 0.611
5 | NCI-H1944 | 0.921 | 0.972 | 1.03 | 0.969 | 1.06 | 1.01 | 1.04 | 0.98 | 0.215 | 0.197 | 0.21 | 0.182 | 0.942 | 0.729 | 0.998 | 0.773 | 0.614 | 0.673 | 0.559 | 0.552
6 | NCI-H2023 | 0.998 | 0.883 | 1.07 | 0.329 | 1.15 | 1 | 1.06 | 0.579 | 0.696 | 0.598 | 0.608 | 0.137 | 0.743 | 0.761 | 0.797 | 0.38 | 0.599 | 0.426 | 0.645 | 0.251
7 | NCI-H1650 | 0.986 | 0.849 | 0.932 | 0.27 | 1.34 | 1.08 | 1.36 | 0.478 | 0.344 | 0.27 | 0.282 | 0.231 | 0.737 | 0.788 | 0.966 | 0.214 | 0.645 | 0.514 | 0.622 | 0.183
8 | NCI-H1395 | 1.05 | 0.846 | 0.995 | 0.925 | 1.14 | 1 | 1.07 | 0.927 | 0.413 | 0.445 | 0.426 | 0.388 | 1.01 | 0.933 | 1.09 | 0.911 | 1.11 | – | 0.79 | 0.573
9 | NCI-H2087 | 1.02 | 0.936 | 1.08 | 0.788 | 1.19 | 1.16 | 1.02 | 0.616 | 0.681 | 0.969 | 0.757 | 0.737 | 1.08 | 1.02 | 1.03 | 0.519 | 0.985 | 0.728 | 0.886 | 0.439
10 | PC-14 | 1.12 | 0.971 | 1.04 | 0.755 | 0.93 | 1.02 | 1.16 | 0.848 | 0.211 | 0.256 | 0.253 | 0.129 | 0.34 | 0.31 | 0.409 | 0.262 | 0.793 | 0.701 | 0.725 | 0.522
11 | NCI-H1793 | 1.01 | 0.911 | 0.869 | 0.917 | 0.412 | 0.346 | 0.329 | 0.361 | 0.382 | 0.365 | 0.393 | 0.367 | 0.563 | 0.625 | 0.75 | 0.745 | 0.947 | 0.703 | 0.728 | 0.653
12 | LC-2-ad | 1.17 | 0.95 | 1.07 | 1.03 | 0.428 | 0.363 | 0.497 | 0.33 | 0.907 | 0.525 | 0.547 | 0.26 | 1.07 | 0.891 | 0.949 | 1.09 | 0.734 | 0.753 | 0.723 | 0.698
13 | HCC-78 | 1.16 | 0.947 | 1.14 | 0.992 | 0.789 | 0.658 | 0.697 | 0.732 | 0.431 | 0.392 | 0.523 | 0.363 | 0.809 | 0.338 | 0.878 | 0.695 | 0.47 | 0.489 | 0.388 | 0.441
